Source: patent US20230149419A1, “COMPOSITION FOR PREVENTING OR TREATING NEUROINFLAMMATORY DISEASES, COMPRISING CHLORPROMAZINE” (GliaCellTech Inc., priority 2020, published 2023)

Key:
[1] = tested on: Psen2 mutation mouse model of Alzheimer's disease; assay: Y-maze test, Psen2 mutation mouse model of Alzheimer's disease; assay type: in vivo; details: for Y-maze Alternation % / Y-maze No. of Arm entry: chlorpromazine 0.25 mg/kg i.p., mean±SEM
Experimental: Specifically, the Y-maze was used to evaluate spatial working memory. The assay was conducted in white plastic arms of a Y-shaped maze. A mouse was placed in the center of the maze and was allowed to freely explore the arms for 5 min. The experiment was recorded with EthoVision software (Noldus). The number of arm entries and the number of triads were analyzed to calculate the percentage of alternation by dividing the number of three consecutive arm entries (triads) by the number of possible triads×100 (total arm entries−2).
An examination was made to see whether LPS-induced inflammation causes memory decline and chlorpromazine reverses the LPS-induced inflammation in disease animal models. To analyze memory and behavior performance, the Y-maze test as in Example 4 was conducted.

[2] = tested on: primary microglia from wild-type mice; assay: IL-1β secretion after LPS and inflammasome activation (nigericin/ATP), wild-type microglia; assay type: cell-based, mouse; details: chlorpromazine 0.5 μM 30 min, LPS 1 μg/mL 3 h
Experimental: (§1) Primary microglia were obtained from wild-type mice and Psen2^N141I/+ mice with Alzheimer's disease. Specifically, brains were excised from neonatal mice 1 to 3 days old and cells were obtained therefrom. The cells were cultured in Dulbecco's modified Eagle's medium (DMEM, Corning) supplemented with 10% heat-inactivated fetal bovine serum (HI-FBS, Hyclone) and 1% penicillin-streptomycin (Hyclone). Primary microglia were isolated in vitro by tapping after 12 days of culturing. Purity of primary microglia was estimated by immunostaining with an antibody against Iba-1, which is a microglial marker.
IL-1β is a cytokine released from an activated inflammasome complex in microglia. For secretion of the cytokine, additional treatment with a drug for inducing activation of the inflammasome complex is necessary following LPS-induced inflammation. […] Application of the test groups thus obtained could divide groups 5 to 8 of Example 5-2 into 10 subgroups according to treatment with nigericin and ATP.

[3] = tested on: Psen2^N141I/+ Alzheimer's disease mice; assay: Serum cytokine levels after low-concentration LPS injection, Psen2 mutation mice
Experimental: To investigate neuroinflammation at various concentrations of LPS, blood was extracted from cheek veins in the wild-type mice in group 2 and the mouse model of Alzheimer's disease in group 4 20 hours after the injection of LPS. The sera obtained by centrifugation were quantitatively analyzed for IL-6, TNFα, CCL2, CXCL1, and CCL5 by using ELISA kit (R&D Systems) according to the manufacturer's instruction. In addition, the same procedure was conducted for the wild-type mice without LPS injection of group 1 and the Psen2^N141I mutation mouse model of Alzheimer's disease of group 3 to obtain sera which were then analyzed for the proteins by using the ELISA kit according to the manufacturer's instruction.
The wild-type mice and the Psen2 mutation mouse model of Alzheimer's disease obtained in Example 1 were intraperitoneally injected with chlorpromazine (0.25 mg/body weight kg) at 14:00 and then with such a low concentration of LPS (0.35 μg/kg) as to be ineffective for inflammation in wild-type mice at 18:00 (Zeitgeber time light-on at 11:00 and 07:00). After 20 hours, the mice were monitored for inflammatory responses and memory behavior. The concentration of chlorpromazine (0.25 mg/body weight kg) used in this assay is tens- to hundreds-fold lower than those conventionally used as an antipsychotic (25 mg/injection, 3 times/day).
After the experiment conducted as in the scheme of FIG. 11A, the wild-type and the Psen2^N141I/+ Alzheimer's disease mice, both intraperitoneally injected with LPS, were analyzed for inflammatory response according to chlorpromazine treatment as measured for serum levels of the circadian clock-controlled cytokines (IL-6, CXCL1, CCL2, and CCL5) by ELISA as in Example 2.

[4] = tested on: primary microglia from wild-type mice; assay: LPS-induced cytokine mRNA expression in primary microglia (qRT-PCR), wild-type; assay type: cell-based, mouse
Experimental: as §1
(§2) In this regard, the primary microglia were preincubated with or without 0.5 μM chlorpromazine for 30 min before LPS treatment. Anti-inflammatory effects were compared and analyzed between the test groups.
(§3) The culture of each group was measured for microglial mRNA expression levels of the target cytokines by qRT-PCR (quantitative RT-PCR). Specifically, RNA was isolated from the microglia and cDNA was synthesized using an ImProm-II Reverse Transcriptase kit (Promega). PCR primers were commercially available (Cosmo Genetech). qRT-PCR was performed using Taq Polymerase (Invitrogen) and mouse cDNA-specific primers listed in Table 6, below. In addition, TOPreal™ qPCR 2×PreMIX (SYBR Green with low ROX) (Enzynomics) was used. Amplification (50 cycles) was performed for 50 cycles with all primers in a CFX96 Real-Time System (Bio-Rad). Actb was used as the reference genes for normalization.

[5] = tested on: primary microglia from Psen2 mutation (KI/+) mouse model of Alzheimer's disease; assay: fAβ42-induced cytokine secretion in primary microglia (ELISA), Psen2 mutation; assay type: cell-based
Experimental: as §1
Specifically, FITC-conjugated amyloid beta 1-42 was prepared according to the follow reference (Cho, M.-H. et al. “Autophagy in microglia degrades extracellular β-amyloid fibrils and regulates the NLRP3 inflammasome.” Autophagy 10, 1761-1775 (2014)).
The primary cultures of microglia prepared in Example 5-1 from the Psen2 mutation (KI/+) mouse model of Alzheimer's disease and the wild-type (WT) mice were directly treated with 4 μM of the fibrilized amyloid beta 1-42 (fAβ42), followed by incubation with or without 0.5 μM chlorpromazine.

[6] = tested on: Nr1d1 mRNA in primary microglia from wild-type mice; assay: Nr1d1 mRNA expression in primary microglia (qRT-PCR), wild-type; assay type: cell-based, mouse
Experimental: Effects were analyzed in the experimental group not treated with chlorpromazine on the obtained microglia and the experimental group treated with chlorpromazine at a dose of 0.5 μM.

[7] = tested on: primary microglia from Psen2^N141I/+ mice with Alzheimer's disease; assay: LPS-induced cytokine mRNA expression in primary microglia (qRT-PCR), Psen2 mutation; assay type: cell-based, mouse
Experimental: as §1, §2, §3

[8] = Alzheimer's disease model/LPS(+)/CPZ(+) (Group 48), LPS 0.35 μg/kg
[9] = Alzheimer's disease model/LPS(−)/CPZ(+) (Group 46)
[10] = Alzheimer's disease model mice, chlorpromazine 0.25 mg/kg i.p., LPS 0.35 μg/kg i.p., 20 h after LPS (Group 40)
[11] = WT microglia, LPS 1 μg/mL 12 h, 0.5 μM chlorpromazine (Group 6)
[12] = KI/+ microglia, 4 μM fAβ42, 0.5 μM chlorpromazine (Group 26)
[13] = KI/+ microglia, LPS 1 μg/mL 12 h, 0.5 μM chlorpromazine (Group 8)

Structure (SMILES): CN(C)CCCN1c2ccccc2Sc2ccc(Cl)cc21 [CPZ, 3-(2-chloro-10H-phenothiazin-10-yl)-N,N-dimethyl-propan-1-amine]
- Y-maze Alternation % [1, 8]: 72.000 ± 3.964%
- Y-maze No. of Arm entry [1, 8]: 16.500 ± 1.368
- Y-maze Alternation % [1, 9]: 77.714 ± 4.699%
- Y-maze No. of Arm entry [1, 9]: 18.286 ± 1.063
- LPS-induced memory decline, arm alternation in Y-maze (in words) ([1]; LPS-injected Psen2 mutation mouse model, group 48): sufficient recovery
- memory performance, arm alternation in Y-maze (in words) ([1]; Psen2 mutation mice, chlorpromazine alone vs no drug treatment): no significant different memory performance
- IL-1β secreted ([2]; wild-type microglia (Group 15), Nig(+)/ATP(−), nigericin 10 μM 40 min): 857.639 pg/mL
- IL-1β secreted ([2]; wild-type microglia (Group 17), Nig(−)/ATP(+), ATP 5 mM 40 min): 1251.571 pg/mL
- Inflammatory cytokine secreted CCL2 (serum) [3, 10]: 107.403 pg/mL
- Inflammatory cytokine secreted CCL5 (serum) [3, 10]: 93.240 pg/mL
- Inflammatory cytokine secreted CXCL1 (serum) [3, 10]: 173.999 pg/mL
- Inflammatory cytokine secreted IL-6 (serum) [3, 10]: 44.280 pg/mL
- Inflammatory cytokine secreted TNF-α (serum) [3, 10]: 71.248 pg/mL
- production of the circadian clock-controlled cytokines in serum (in words) ([3]; Psen2 mutation mice, group 40 vs 39, LPS 0.35 μg/kg): remarkably repressed
- Inflammatory cytokine expression Ccl2 (mRNA) [4, 11]: 0.907 fold
- Inflammatory cytokine expression Ccl5 (mRNA) [4, 11]: 1.113 fold
- Inflammatory cytokine expression Cxcl1 (mRNA) [4, 11]: 0.968 fold
- Inflammatory cytokine expression Tnf (mRNA) [4, 11]: 1.066 fold
- Inflammatory cytokine expression Il-6 (mRNA) ([4]; WT microglia, LPS 1 μg/mL 12 h, 0.5 μM chlorpromazine (Group 6), normalized to Actb): 0.947 fold
- mRNA levels of circadian clock-controlled cytokines (in words) ([4]; wild-type microglia, groups 5 and 6, LPS): not affected
- Secreted inflammatory cytokine CCL2 [5, 12]: 1645.882 pg/mL
- Secreted inflammatory cytokine CCL5 [5, 12]: 1818.188 pg/mL
- Secreted inflammatory cytokine CXCL1 [5, 12]: 1528.621 pg/mL
- Secreted inflammatory cytokine IL-6 [5, 12]: 1336.446 pg/mL
- Secreted inflammatory cytokine TNF-α [5, 12]: 1352.738 pg/mL
- anti-inflammatory effect after fAβ42 (in words) ([5]; microglia from Psen2 mutation mouse model (group 26), 0.5 μM chlorpromazine): exhibited an anti-inflammatory effect
- levels of TNF-α after fAβ42 (in words) ([5]; microglia from wild-type mice and Psen2 mutation model): no impacts
- Nr1d1 mRNA expression ([6]; WT microglia, no LPS, 0.5 μM chlorpromazine (Group 28), mean±SEM): 0.860 ± 0.040 fold
- Nr1d1 mRNA expression level (in words) ([6]; wild-type microglia, chlorpromazine 0.5 μM): ineffective
- Inflammatory cytokine expression Ccl2 (mRNA) [7, 13]: 0.670 fold
- Inflammatory cytokine expression Ccl5 (mRNA) [7, 13]: 0.730 fold
- Inflammatory cytokine expression Cxcl1 (mRNA) [7, 13]: 0.692 fold
- Inflammatory cytokine expression Il-6 (mRNA) [7, 13]: 0.538 fold
- Inflammatory cytokine expression Tnf (mRNA) [7, 13]: 1.020 fold
- mRNA expression of IL-6, CXCL1, CCL2, and CCL5 (in words) ([7]; Psen2 mutation microglia, groups 7 vs 8, chlorpromazine 0.5 μM, LPS): decrease the mRNA expression
- mRNA level of TNF-α (in words) ([7]; across all the groups (WT and KI/+ microglia), LPS): no impacts
